Sequences and labels used below:
B1: Gabpα protein (SPR analyte) (natural protein, UniProt Q00422 1-454, looked up)
chain: MTKREAEELIEIEIDGTEKAECTEESIVEQTYTPAECVSQAIDINEPIGNLKKLLEPRLQCSLDAHEICLQDIQLDPDRSLFDQGVKTDGTVQLSVQVISYQGMEPKLNILEIVKTAETVEVVIDPDAHHAEAEAHLVEEAQVITLDGTKHITTISDETSEQVTRWAAALEGYRKEQERLGIPYDPIHWSTDQVLHWVVWVMKEFSMTDIDLTTLNISGRELCSLNQEDFFQRVPRGEILWSHLELLRKYVLASQEQQMNEIVTIDQPVQIIPASVPPATPTTIKVINSSAKAAKVQRSPRISGEDRSSPGNRTGNNGQIQLWQFLLELLTDKDARDCISWVGDEGEFKLNQPELVAQKWGQRKNKPTMNYEKLSRALRYYYDGDMICKVQGKRFVYKFVCDLKTLIGYSAAELNRLVIECEQKKLARMQLHGIAQPVTAVALAATSLQADKEI
notes: May be the Cusabio GST-Gabpα of the pull-down
B2: Gabpα-Pparγ complex binding inhibitor (GPCBi) (peptide)
peptide: {FITC}-YGRKKRRQRRRRRTIRLKLIYDRCDLNCRIHKKSRNK
modifications: cysteine pairing not given here
notes: the numbers fit the 505-residue Pparγ2; also called FITC-GPCBi; peptide GPCBi; source: synthetic peptide

The test system of test [1] is differentiated iBAT‐SVF cells. Put plainly: Relative mRNA and protein levels in differentiated iBAT-SVF cells. The class given is cell-based, C57BL/6 mice. The settings on record: GPCBi 5 µM, first 2 days of differentiation, and Enoblock 10 µM for 24 h (Figure 5p). How it is done:
Interscapular BAT‐SVF cells were obtained from eight‐week‐old male C57BL/6 mice. […] The tissue homogenates were filtered through a 70 µm cell strainer and centrifuged at 1000 rpm for 5 min. The cell pellet was resuspended in DMEM supplemented with 10% FBS (Sigma–Aldrich) and 1% penicillin/streptomycin (P/S) at 37 °C with 5% CO2. The next day, BAT‐SVF cells were immortalized with the SV40 large T antigen according to a published protocol.^[ [32] ^] […] After 48 h, the induction medium was replaced with a maintenance cocktail (5 µg mL^−1 insulin, 1 nM triiodo‐L‐thyronine, and 1 µM rosiglitazone) until 6 to 8 days after the induction of differentiation.
Reverse transcription of cDNA was completed via the use of 1 µg of RNA with HiScript II Q RT SuperMix for real‐time quantitative PCR (qPCR) (Vazyme Biotech, Nanjing, China, Cat# R222) according to the provided protocols. qPCR was performed with a real‐time PCR system on a QuantStudio1 (Applied Biosystems) using Taq Pro Universal SYBR qPCR Master Mix (Vazyme Biotech., Nanjing, China, Cat# Q712‐02). Relative transcript levels were calculated via the comparative C T method; 36b4 was used as the internal control for cells, whereas Hprt was used as the internal control for tissues. The primer sequences are listed in Table S1 (Supporting Information). The mRNAs from the BAT of control and Gabpα ^Ucp1 KO mice were extracted and subjected to commercial RNA‐seq (BGI Genomics Co., Ltd.) for further DEG and KEGG pathway enrichment analysis. In detail, RNA quality was examined with Fragment (Agilent). High‐quality RNA (RIN > 8.0) was used to library construction. RNA‐seq was performed at BGI Genomics (China) using the Illumina NovaSeq 6000 platform. Clean reads were aligned to the mouse reference genome (GRCm39) using Bowtie2, and transcript quantification was performed with RSEM. […] The RNA‐seq data generated in this study have been deposited in the National Center for Biotechnology Information Sequence Read Archive database under accession code PRJNA1358056.
Cells and tissues were lysed in RIPA lysis buffer (Beyotime, Shanghai, China, Cat# P0013B) containing a protease inhibitor cocktail (MedChem Express, NJ, USA, Cat# HY‐K0010) according to the manufacturer's protocol. Equal amounts of protein were separated on SDS‒PAGE gels and transferred to PVDF membranes (Millipore). The PVDF membranes were blocked in 5% skim milk for 1 h at room temperature and then incubated with primary antibody overnight at 4 °C. The membranes were washed three times with TBST and then incubated with HRP‐conjugated secondary antibodies for 1 h at room temperature. After washing three times, the Western blots were imaged via an enhanced chemiluminescence system.

For test [2], the system named is differentiated iBAT‐SVF cells. Put plainly: Lactate levels in differentiated iBAT-SVF cells. The class given is cell-based, C57BL/6 mice. The conditions noted are these: GPCBi 5 µM, first 2 days of differentiation, and Enoblock 10 µM for 24 h (Figure 5o). As to the method:
(§1) Interscapular BAT‐SVF cells were obtained from eight‐week‐old male C57BL/6 mice. Briefly, BAT was excised, washed in PBS, minced, and digested at 37 °C for 40 min in Hanks solution containing type II collagenase (Sigma, Cat# C‐6885) and 4% bovine serum albumin (BSA). The tissue homogenates were filtered through a 70 µm cell strainer and centrifuged at 1000 rpm for 5 min. The cell pellet was resuspended in DMEM supplemented with 10% FBS (Sigma–Aldrich) and 1% penicillin/streptomycin (P/S) at 37 °C with 5% CO2. The next day, BAT‐SVF cells were immortalized with the SV40 large T antigen according to a published protocol.^[ [32] ^] For iBAT‐SVF cell differentiation, confluent SVF cells were induced to differentiate with medium containing 0.5 mM isobutylmethylxanthine (Sigma, Cat# I‐5879), 125 µM indomethacin (Sigma, Cat# I‐7378), 2 µg mL^−1 dexamethasone (Sigma, Cat# D‐1756), 5 µg mL^−1 insulin (Solarbio, Cat# I‐8040), 1 nM triiodo‐L‐thyronine (Sigma, Cat# T‐2877), and 1 µM rosiglitazone (Cayman, Cat# 71740‐100). After 48 h, the induction medium was replaced with a maintenance cocktail (5 µg mL^−1 insulin, 1 nM triiodo‐L‐thyronine, and 1 µM rosiglitazone) until 6 to 8 days after the induction of differentiation.
Brown fat was homogenized with lysis buffer, ultrasonographically treated on ice at 300 W (on for 3 s, off for 7 s) for 2 min, and then centrifuged at 4 °C at 12 000 × g for 10 min. […] All protocols were followed in accordance with the manufacturer's guidelines.

Another test deals with Eno1 promoter. Put plainly: Luciferase reporter assay, Eno1-Luc activated by Gabpα and Pparγ/Rxrα. The test is classed as cell-based, human. The settings on record: HEK293T cells, T0070907 10 µM, n = 3 (Figure 3o). How it is done:
HEK293T cells were transfected with 100 ng of Pparγ and 100 ng of Rxrα or empty vector together with 100 ng of Gabpα plasmid or the C‐terminal truncation mutants and 200 ng of Eno1 luciferase reporter plasmid in 24‐well plates via Lipofectamine reagent (Yeasen, Shanghai, China, Cat# 40802ES03). For the experiments with the peptides GPCBi or T0070907, the additional peptides GPCBi (3 µM) or T0070907 (10 µM) were added to the HEK293T cells one day after the plasmid complex was transfected. After 48 h of transfection, luciferase activity was measured via the Dual‐Luciferase Reporter Assay System (Vazyme Biotech., Nanjing, China; Cat# DL101‐01). Firefly luciferase reporter gene measurements were normalized to Renilla luciferase activity.

The next test relates to BAT from wild‐type mice. Nature of the test: H&E staining and Ucp1 immunostaining of BAT. The class given is in vivo, wild‐type C57BL/6J mice. The settings on record: GPCBi 5.5 mg kg^−1 in BAT for 7 days, then sodium lactate 2 g kg^−1 d^−1 i.p. daily for 3 days following 10 °C for 2 days; Ucp1 immunostaining (Figure 5g-i). As to the method: The mouse experiments were approved by the Institutional Animal Care and Use Committee of the Institute of Model Animals of Tongji Hospital, Huazhong University of Science and Technology, and were performed in compliance with all relevant ethical regulations (approval number: TJH‐202110044). Unless otherwise noted, the mice were housed in a pathogen‐free and climate‐controlled environment (22–25 °C, 40‐60% humidity) and were given free access to food and water on a 12 h light/dark cycle. Wild‐type C57BL/6J mice were obtained from Beijing Huafukang Bioscience Co., Ltd. (Beijing, China). Gabpa ^flox/flox , Adipoq^Cre , and Ucp1^Cre mice were purchased from Cyagen Biosciences, Inc. (Guangzhou, China). For GPCBi treatment, wild‐type mice were orthotopically injected GPCBi (FITC‐[…]; 5.5 mg kg^−1) or scramble peptide (FITC‐[…]; 5.5 mg kg^−1) into the BAT at room temperature for one week. […] For cold exposure, the mice were caged individually and exposed to a temperature of 10 or 4 °C. The mice were euthanized by CO2 inhalation. For studies with specific diets, five‐week‐old male Gabpα ^Adipo KI mice and their respective littermate control mice were fed a HFD (D12492, Research Diets; 60 kcal% fat, 20 kcal% carbohydrates, and 20 kcal% protein; Medicience Ltd., Jiangsu, China) at ambient temperature. The food was changed every week. Body weight was measured every week, and tissue weights were measured at the time of euthanasia.
For haematoxylin and eosin (H&E) staining, adipose tissues and the liver were fixed in 4% paraformaldehyde overnight at 4 °C and then dehydrated in 70% ethanol. The tissues were subsequently embedded in paraffin, sectioned at a thickness of 5 µm, and stained with H&E or immunostained with a Ucp1 antibody (Abcam, UK, Cat# ab234430, 1:500 dilution) following the standard protocol. For Oil Red O staining, frozen liver sections were stained with Oil Red O solution for 10 min and then counterstained with haematoxylin for 20 s. Images of the tissue samples were captured via an Olympus BX53 Orthomicroscope. […]

Another test concerns iBAT‐SVF cells. Nature of the test: Immunofluorescence, nuclear localization of FITC-GPCBi in iBAT-SVF cells. The class given is cell-based, C57BL/6 mice. The conditions noted are these: FITC‐GPCBi 5 µM, first 2 days of adipogenic differentiation; DAPI (Figure 4d). As to the method: as §1, with “After 48 h, the induction medium was replaced with a maintenance cocktail (5 µg mL^−1 insulin, 1 nM triiodo‐L‐thyronine, and 1 µM rosiglitazone) until 6 to 8 days after the induction of differentiation.” left out
Differentiated iBAT‐SVF cells were fixed with 4% paraformaldehyde for 20 min at room temperature and then rinsed three times with PBS. […] The cells were subsequently washed three times with PBS and incubated with a fluorescence‐conjugated secondary antibody (ABclonal, Wuhan, China, Cat# AS053; AS008, 1:200 dilution) for 1 h at room temperature. […]

Test [3] deals with T1, Pparγ protein (SPR ligand) (UniProt P37238 1-505).
T1 construct: May be the Cusabio His-Pparγ of the pull-down
T1 sequence (looked up): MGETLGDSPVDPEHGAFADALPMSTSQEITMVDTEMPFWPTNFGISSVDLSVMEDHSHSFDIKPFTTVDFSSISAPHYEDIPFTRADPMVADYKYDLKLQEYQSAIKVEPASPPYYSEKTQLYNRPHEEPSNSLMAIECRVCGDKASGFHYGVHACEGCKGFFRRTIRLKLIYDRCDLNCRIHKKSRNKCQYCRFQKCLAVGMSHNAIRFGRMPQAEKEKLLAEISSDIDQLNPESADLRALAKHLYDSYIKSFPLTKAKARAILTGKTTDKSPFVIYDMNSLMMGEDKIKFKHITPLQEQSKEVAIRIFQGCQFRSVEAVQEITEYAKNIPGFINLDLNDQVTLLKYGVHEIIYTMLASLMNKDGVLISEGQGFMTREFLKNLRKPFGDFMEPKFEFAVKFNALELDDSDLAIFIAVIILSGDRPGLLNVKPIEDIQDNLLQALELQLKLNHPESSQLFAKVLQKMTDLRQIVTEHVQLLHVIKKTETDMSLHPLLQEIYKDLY
Nature of the test: SPR; Biacore T200, CM5 chip; Pparγ immobilised covalently; different concentrations of Gabpα injected; 120 s association, 200 s dissociation. The settings on record: both partners purified.

Test [4] concerns the target B1. Nature of the test: not stated; direct binding of GPCBi to Gabpα, dose-dependent (Figure S4d); method and who was immobilised not told. The conditions noted are these: both partners purified.

No end group written: not given here. *: point of attachment. FITC = O=C1OC2(c3ccc(O)cc3Oc3cc(O)ccc32)c2ccc(NC(=S)*)cc21

As for `NCCOCCOCCNC(=O)Cc1ccc(Nc2nc(NCc3ccc(F)cc3)nc(NCC3CCCCC3)n2)cc1` [Enoblock, reference compound], in test [1], the “ucp1 expression when Enoblock further added to GPCBi-treated brown adipocytes” value is “no change”. In test [2], the “GPCBi-induced reduction of lactate level in presence of Enoblock” value is “not observed”. As to `O=C(Nc1ccncc1)c1cc([N+](=O)[O-])ccc1Cl` [T0070907, reference compound], the “Eno1 promoter activity induced by Gabpα” value in the test on Eno1 promoter is given as “inhibited”.

Take `CC(O)C(=O)[O-].[Na+]` (stereo not shown) [lactate, sodium lactate, reference compound]: in the test with BAT from wild‐type mice, the “Ucp1 expression suppressed by GPCBi (rescue)” value is given as “rescued”.

Take “FITC‐tagged GPCBi: FITC‐tagged GPCBi ({FITC}-YGRKKRRQRRRRRTIRLKLIYDRCDLNCRIHKKSRNK; cysteine pairing not given here)”: the cellular localization result with iBAT‐SVF cells is recorded as “nuclear localization”.

Turning to B1, in test [3], the Kd came out at 5.34 nM.

Regarding B2, the Kd in test [4] amounted to 7.03 nM.

The record behind these values is publication PMC12884720, “Gabpα‐Pparγ Complex Determines Glycolytic Capacity and Lactic Acid Homeostasis in Brown Fat” (Advanced Science, 2025).
